{"source": "patent US20100314316A1", "about": "“HALOGENATED AMIDES AS BIOCIDES FOR TREATING WATER SYSTEMS CONTAINING REDUCING AGENTS” (priority 2009, published 2010)", "format_in_all_cases": "cell-based", "key": {"[1]": {"tested_on": "field isolated bacteria", "assay": "Resistance of biocide to sulfite deactivation: biocide pretreated with sulfite in paper mill white water before efficacy testing", "conditions": "for Decrease of efficacy due to sulfite pretreatment (bacterial log10 reduction): 80 ppm sulfite, 4 hrs; for Bacterial log10 reduction after treatment of biocide for 4 hrs: white water about pH 7.5, 37 C", "experimental": "50 ppm to 80 ppm sulfite is representative of a sulfite level for pulp and paper applications. The same white water sample without sulfite is used as none sulfite comparison and the same whitewater samples containing no biocide and with or without sulfite are used as controls. The water samples are incubated at 37° C. for 5 min and then are inoculated with field isolated bacteria at a concentration of approximately 10^7 CFU/mL. The mixtures are then incubated at 37° C. for 4 hours. After that, the viable bacteria in the mixtures is enumerated using a serial dilution method."}, "[2]": {"tested_on": "bacteria in sulfite-containing white water", "assay": "Biocidal efficacy in presence of sulfite in contaminated paper mill white water (1-96 hours)", "conditions": "for Bacterial log10 reduction at time point after biocide addition: about 80 ppm sulfite; for Duration of effectiveness (>3 log10 killing) compared with DBNPA: sulfite-containing white water", "experimental": "The same contaminated whitewater samples without biocide are used as controls. The mixtures are incubated at 37° C. with shaking (100 RPM) for 96 hrs. At 1 hr, 3 hrs, 24 hrs, 48 hrs, 72 hrs and 96 hrs time points after the biocide addition, the valid bacteria in the mixtures are enumerated using a serial dilution method and the bacterial log10 reduction is calculated by comparing the valid bacteria number of biocide treated water aliquots to that of controls. Starting from 24 hrs after the sampling, the mixtures are reinoculated with field isolated bacteria at about 10^5 CFU/mL and are supplied with additional sulfite to keep an 80 ppm sulfite concentration."}, "[3]": {"tested_on": "bacteria isolated from paper mill white water", "assay": "Biocidal efficacy of seven biocides in artificial white water", "conditions": "artificial white water pH 8.1, 37 C", "experimental": "Sterile artificial White Water (111 mg of CaCl2, 60 mg of MgSO4, 168 mg of NaHCO3, 140 mg of K2HPO4, 480 mg of NH4Cl, 1.04 mg of FeCl3.6H2O, 1.48 mg of Na2EDTA, 3000 mg of Dextrose, 10 mg of Yeast Extract, in 1 L water, pH 8.1) is contaminated with field isolated bacteria at a concentration of approximately 10^7 CFU/mL. The aliquots of this contaminated water are then treated with eight dosage levels of DBMAL and six other commonly used biocides in paper mill white water application. The same aliquots of the contaminated water without biocide are used as controls. After incubating at 37° C. for 4 hours, the valid bacteria in the aliquots are enumerated using a serial dilution method and the bacterial log10 reduction is calculated by comparing the valid bacteria number of biocide treated water aliquots to that of controls. Table 4 compares the efficacy of the seven biocides, expressed by bacterial log10 reduction."}, "[4]": {"conditions": "80 ppm sulfite pretreated, 29.7 ppm biocide"}, "[5]": {"conditions": "80 ppm sulfite pretreated, 44.5 ppm biocide"}, "[6]": {"conditions": "80 ppm sulfite pretreated, 66.7 ppm biocide"}, "[7]": {"conditions": "80 ppm sulfite pretreated, 100.0 ppm biocide"}, "[8]": {"conditions": "non-sulfite treated, 29.7 ppm biocide"}, "[9]": {"conditions": "non-sulfite treated, 44.5 ppm biocide"}, "[10]": {"conditions": "non-sulfite treated, 66.7 ppm biocide"}, "[11]": {"conditions": "non-sulfite treated, 100.0 ppm biocide"}, "[12]": {"conditions": "25 ppm active, 1 hr, pH 7.6, 37 C"}, "[13]": {"conditions": "25 ppm active, 3 hr, pH 7.6, 37 C"}, "[14]": {"conditions": "25 ppm active, 24 hrs, pH 7.6, 37 C"}, "[15]": {"conditions": "25 ppm active, 48 hrs, reinoculated from 24 hrs"}, "[16]": {"conditions": "25 ppm active, 72 hrs, reinoculated from 24 hrs"}, "[17]": {"conditions": "25 ppm active, 96 hrs, reinoculated from 24 hrs"}, "[18]": {"conditions": "50 ppm active, 1 hr, pH 7.6, 37 C"}, "[19]": {"conditions": "50 ppm active, 3 hr, pH 7.6, 37 C"}, "[20]": {"conditions": "50 ppm active, 24 hrs, pH 7.6, 37 C"}, "[21]": {"conditions": "50 ppm active, 48 hrs, reinoculated from 24 hrs"}, "[22]": {"conditions": "50 ppm active, 72 hrs, reinoculated from 24 hrs"}, "[23]": {"conditions": "50 ppm active, 96 hrs, reinoculated from 24 hrs"}}}
{"smiles": "NC(=O)C(Br)(Br)C(N)=O", "note": "[DBMAL, 2,2-Dibromomalonamide]", "values": [{"measurement": "Decrease of efficacy due to sulfite pretreatment (bacterial log10 reduction)", "setting": "[1]; 29.7 ppm biocide", "result": 0.7, "unit": "log10"}, {"measurement": "Decrease of efficacy due to sulfite pretreatment (bacterial log10 reduction)", "setting": "[1]; 44.5 ppm biocide", "result": 3.3, "unit": "log10"}, {"measurement": "Decrease of efficacy due to sulfite pretreatment (bacterial log10 reduction)", "setting": "[1]; 66.7 ppm biocide", "result": 2.7, "unit": "log10"}, {"measurement": "Bacterial log10 reduction after treatment of biocide for 4 hrs", "setting": "[1]; [4]", "result": 1.0, "unit": "log10"}, {"measurement": "Bacterial log10 reduction after treatment of biocide for 4 hrs", "setting": "[1]; [5]", "result": 1.0, "unit": "log10"}, {"measurement": "Bacterial log10 reduction after treatment of biocide for 4 hrs", "setting": "[1]; [6]", "result": 2.3, "unit": "log10"}, {"measurement": "Bacterial log10 reduction after treatment of biocide for 4 hrs", "setting": "[1]; [7]", "result": 2.3, "unit": "log10"}, {"measurement": "Decrease of efficacy due to sulfite pretreatment (bacterial log10 reduction)", "setting": "[1]; 100.0 ppm biocide", "result": 2.4, "unit": "log10"}, {"measurement": "Bacterial log10 reduction after treatment of biocide for 4 hrs", "setting": "[1]; [8]", "result": 1.7, "unit": "log10"}, {"measurement": "Bacterial log10 reduction after treatment of biocide for 4 hrs", "setting": "[1]; [9]", "result": 4.3, "unit": "log10"}, {"measurement": "Bacterial log10 reduction after treatment of biocide for 4 hrs", "setting": "[1]; [10]", "result": 5.0, "unit": "log10"}, {"measurement": "Bacterial log10 reduction after treatment of biocide for 4 hrs", "setting": "[1]; [11]", "result": 4.7, "unit": "log10"}, {"measurement": "Decrease in efficacy when premixed with 80 ppm sulfite, compared with DBNPA", "setting": "[1]; premixed with 80 ppm sulfite", "result": "much smaller"}, {"measurement": "Bacterial log10 reduction at time point after biocide addition", "setting": "[2]; [12]", "result": 2.5, "unit": "log10"}, {"measurement": "Bacterial log10 reduction at time point after biocide addition", "setting": "[2]; [13]", "result": 3.2, "unit": "log10"}, {"measurement": "Bacterial log10 reduction at time point after biocide addition", "setting": "[2]; [14]", "result": 4.2, "unit": "log10"}, {"measurement": "Bacterial log10 reduction at time point after biocide addition", "setting": "[2]; [15]", "result": 3.7, "unit": "log10"}, {"measurement": "Bacterial log10 reduction at time point after biocide addition", "setting": "[2]; [16]", "result": 1.5, "unit": "log10"}, {"measurement": "Bacterial log10 reduction at time point after biocide addition", "setting": "[2]; [17]", "result": 1.2, "unit": "log10"}, {"measurement": "Bacterial log10 reduction at time point after biocide addition", "setting": "[2]; [18]", "result": ">=4.0 log10"}, {"measurement": "Bacterial log10 reduction at time point after biocide addition", "setting": "[2]; [19]", "result": 3.8, "unit": "log10"}, {"measurement": "Bacterial log10 reduction at time point after biocide addition", "setting": "[2]; [20]", "result": ">=4.3 log10"}, {"measurement": "Bacterial log10 reduction at time point after biocide addition", "setting": "[2]; [21]", "result": 4.3, "unit": "log10"}, {"measurement": "Bacterial log10 reduction at time point after biocide addition", "setting": "[2]; [22]", "result": 4.2, "unit": "log10"}, {"measurement": "Bacterial log10 reduction at time point after biocide addition", "setting": "[2]; [23]", "result": 3.8, "unit": "log10"}, {"measurement": "Duration of effectiveness (>3 log10 killing) compared with DBNPA", "setting": "[2]; same active concentration of 25 ppm", "result": "one more day"}, {"measurement": "Duration of effectiveness (>3 log10 killing) compared with DBNPA", "setting": "[2]; same active concentration of 50 ppm", "result": "two more days"}, {"measurement": "Minimum dosage (ppm, active) required for at least 3 log10 reduction in numbers of bacteria in 4 hours", "setting": "[3]; approximately 10^7 CFU/mL", "result": 81.92, "unit": "ppm"}]}
{"smiles": "N#CC(Br)(Br)C(N)=O", "note": "[DBNPA, 2,2-Dibromo-3-nitrilopropionamide]", "values": [{"measurement": "Decrease of efficacy due to sulfite pretreatment (bacterial log10 reduction)", "setting": "[1]; 29.7 ppm biocide", "result": ">=3.4 log10"}, {"measurement": "Decrease of efficacy due to sulfite pretreatment (bacterial log10 reduction)", "setting": "[1]; 44.5 ppm biocide", "result": ">=4.4 log10"}, {"measurement": "Decrease of efficacy due to sulfite pretreatment (bacterial log10 reduction)", "setting": "[1]; 66.7 ppm biocide", "result": ">=4.4 log10"}, {"measurement": "Bacterial log10 reduction after treatment of biocide for 4 hrs", "setting": "[1]; [4]", "result": 1.3, "unit": "log10"}, {"measurement": "Bacterial log10 reduction after treatment of biocide for 4 hrs", "setting": "[1]; [5]", "result": 1.3, "unit": "log10"}, {"measurement": "Bacterial log10 reduction after treatment of biocide for 4 hrs", "setting": "[1]; [6]", "result": 1.3, "unit": "log10"}, {"measurement": "Bacterial log10 reduction after treatment of biocide for 4 hrs", "setting": "[1]; [7]", "result": 2.3, "unit": "log10"}, {"measurement": "Decrease of efficacy due to sulfite pretreatment (bacterial log10 reduction)", "setting": "[1]; 100.0 ppm biocide", "result": ">=3.4 log10"}, {"measurement": "Bacterial log10 reduction after treatment of biocide for 4 hrs", "setting": "[1]; [8]", "result": 4.7, "unit": "log10"}, {"measurement": "Bacterial log10 reduction after treatment of biocide for 4 hrs", "setting": "[1]; [9]", "result": ">=5.7 log10"}, {"measurement": "Bacterial log10 reduction after treatment of biocide for 4 hrs", "setting": "[1]; [10]", "result": ">=5.7 log10"}, {"measurement": "Bacterial log10 reduction after treatment of biocide for 4 hrs", "setting": "[1]; [11]", "result": ">=5.7 log10"}, {"measurement": "Bacterial log10 reduction at time point after biocide addition", "setting": "[2]; [12]", "result": ">=4.0 log10"}, {"measurement": "Bacterial log10 reduction at time point after biocide addition", "setting": "[2]; [13]", "result": ">=4.0 log10"}, {"measurement": "Bacterial log10 reduction at time point after biocide addition", "setting": "[2]; [14]", "result": 3.3, "unit": "log10"}, {"measurement": "Bacterial log10 reduction at time point after biocide addition", "setting": "[2]; [15]", "result": 1.5, "unit": "log10"}, {"measurement": "Bacterial log10 reduction at time point after biocide addition", "setting": "[2]; [16]", "result": 0.3, "unit": "log10"}, {"measurement": "Bacterial log10 reduction at time point after biocide addition", "setting": "[2]; [17]", "result": 0, "unit": "log10"}, {"measurement": "Bacterial log10 reduction at time point after biocide addition", "setting": "[2]; [18]", "result": ">=4.0 log10"}, {"measurement": "Bacterial log10 reduction at time point after biocide addition", "setting": "[2]; [19]", "result": ">=4.0 log10"}, {"measurement": "Bacterial log10 reduction at time point after biocide addition", "setting": "[2]; [20]", "result": ">=4.3 log10"}, {"measurement": "Bacterial log10 reduction at time point after biocide addition", "setting": "[2]; [21]", "result": 4.5, "unit": "log10"}, {"measurement": "Bacterial log10 reduction at time point after biocide addition", "setting": "[2]; [22]", "result": 1.0, "unit": "log10"}, {"measurement": "Bacterial log10 reduction at time point after biocide addition", "setting": "[2]; [23]", "result": 0.7, "unit": "log10"}, {"measurement": "Minimum dosage (ppm, active) required for at least 3 log10 reduction in numbers of bacteria in 4 hours", "setting": "[3]; approximately 10^7 CFU/mL", "result": 128.00, "unit": "ppm"}]}
{"smiles": "NCl", "note": "[monochloramine]", "values": [{"measurement": "Minimum dosage (ppm, active) required for at least 3 log10 reduction in numbers of bacteria in 4 hours", "setting": "[3]; active expressed as chlorine", "result": "8.00 (chlorine) ppm"}]}
{"smiles": "CC1(C)C(=O)N(Cl)C(=O)N1Br", "note": "[BCDMH, 1-Bromo-3-chloro-5,5-dimethylhydantoin]", "values": [{"measurement": "Minimum dosage (ppm, active) required for at least 3 log10 reduction in numbers of bacteria in 4 hours", "setting": "[3]; active ppm measured by available bromine & chlorine (chlorine/bromine)", "result": "71.74 (chlorine/bromine) ppm"}]}
{"smiles": "O=CCCCC=O", "note": "[Glutaraldehyde]", "values": [{"measurement": "Minimum dosage (ppm, active) required for at least 3 log10 reduction in numbers of bacteria in 4 hours", "setting": "[3]; approximately 10^7 CFU/mL", "result": 163.84, "unit": "ppm"}]}
